Experimental data from patent US12115224B2, “Polypeptide conjugates for intracellular delivery of stapled peptides” (Ohio State Innovation Foundation, priority 2017, dated 2024).
Values joined by “and” are separate entries in the source; they are usually repeats but may differ in a detail not shown here. Equal values may be shown once. Numbered stars: 1 amine (or outer) side, 2 acyl side, 3 side chain; on linkers, the order of the positions; unused ones are H or OH. Bridge positions count the residues as written; N and C are the ends. Square brackets hold non-standard residues; d marks the D form. Peptide text beside a SMILES is read from it. I, II: the chains in the order shown. * marks the point of attachment. X2 = NC(=O)[C@H](CCCCNC(=O)c1cc(C[*:1])cc(C[*:2])c1)NC(=O)COCCOCCN[*:3]; X1 = O=C1OC2(c3ccc(C(=O)*)cc31)c1ccc3cc(O)ccc3c1Oc1c2ccc2cc(O)ccc12; X3 = NC(=O)[C@H](CCCCNC(=O)CON=C(C[*:1])C[*:2])NC(=O)COCCOCCN[*:3]; FITC = O=C1OC2(c3ccc(O)cc3Oc3cc(O)ccc32)c2ccc(NC(=S)*)cc21; 2Nal = N[C@@H](Cc1ccc2ccccc2c1)C(=O)O; mXylylene = c1cc(C[*:1])cc(C[*:2])c1; NF = 5(6)-carboxynaphthofluorescein; CH2COCH2 = O=C(C[*:1])C[*:2]; hCys = N[C@@H](CCS)C(=O)O; K(NF) = not defined here; AEEA = NCCOCCOCC(=O)O; βAla = NCCC(=O)O

Legend:
HeLa cells = experiment: Cytosolic entry efficiency of NF-labeled peptides by flow cytometry; settings: NF-labeled peptide 5 μM, 2 h, 37° C., 10% FBS; relative to CPP9 (100%)
Description: Flow Cytometry. HeLa cells were seeded in 12-well plates at 1.5×10^5 cells per well for 24 h. The next day, naphthofluorescein-labelled peptide (5 μM) was added to the cells in DMEM medium supplemented with 10% fetal bovine serum (FBS) and 1% penicillin/streptomycin and the cells were incubated at 37° C. for 2 h in the presence of 5% CO2. The medium containing the peptide was removed and the cells were washed with DPBS twice. […] Data were analyzed using the Flowjo software (Tree Star).

MDM2 [1] = biological target: T1, MDM2 (Homo sapiens, UniProt Q00987); experiment: Direct binding of FITC-labeled peptides to MDM2 (KD); settings: relative to the parent peptide
MDM2 [2] = biological target: T1, MDM2; experiment: Fluorescence anisotropy (FA)-based competition with FITC-labeled peptide 1 for binding to MDM2; settings: unlabeled peptides 4 and 5
Description: Expression and Purification of GST-MDM2.

HCT116 p53+/+ = experiment: MTT viability assay, HCT116 WT p53; format: cell-based, human; settings: 0-12.5 μM, 48 h, 10% FBS
Description: (§1) Peptides 4 and 5 were tested for anticancer activity against human colon carcinoma cell lines harboring WT (HCT116 p53+/+) and mutant p53 genes (HCT116 p53−/−) using the MTT viability assay. […] See Vassilev, L. T., et al., Science, 303, 844-848 (2004).
(§2) MTT Assay. HCT116 p53 wild type and HCT116 p53^−/− cells were seeded in 96-well plate with 3×10^3 cells per well, and allowed to grow overnight. Different concentrations of peptides (0-12.5 μM) were added to the cells in McCoy's 5A medium supplemented with 10% FBS and 1% penicillin/streptomycin and incubated at 37° C. for 48 h in the presence of 5% CO2. After that, 10 μL of an MTT stock solution (5 mg/mL) was added into each well and the plate was incubated at 37° C. for 4 h. 100 μL of SDS-HCl solubilizing solution was added and the plate was incubated at 37° C. overnight. The absorbance of the formazan product formed was measured at 570 nm on a Tecan microtiter plate reader.

HCT116 p53−/− = experiment: MTT viability assay, HCT116 p53-/-; format: cell-based, human; settings: 0-12.5 μM, 48 h, 10% FBS
Description: as §1, §2

Molecule	fold decrease of MDM2 binding affinity (MDM2 [1]) [fold]	Cellular Uptake (MFI^NF, %) (HeLa cells)	also measured
Ac-ETFCHYWCQLTS-miniPEG-K(NF)-NH2 (Ac-ETFCHYWCQLTS-{miniPEG-K(NF)-NH2}; linker 4-8 via xylene; reading uncertain; also: printed as Ac-ETFCHYWCQLTS-miniPEG-K(NF)-NH2) [Peptide 10]		2.8% and 2.8 ± 0.1%	
NF-βA-RKFCRLFC-NH2 [14] ({NF-βAla}-RKFCRLFC-NH2; bridge 4-8; not fully specified (bridges)) [Peptide 14]		47% and 47 ± 9%	
NF-βA-ENPECILDCHVQRVM-NH2 [16] ({NF-βAla}-ENPECILDCHVQRVM-NH2; bridge 5-9; not fully specified (bridges)) [Peptide 16]		2.5% and 2.5 ± 0.5%	
CC(=O)N[C@@H](CC(C)C)C(=O)N[C@H](C(=O)N[C@@H](Cc1ccccc1)C(=O)N[C@H]1CCSCc2cccc(c2)CSCC[C@@H](C(=O)N[C@@H](CCC(N)=O)C(=O)N[C@@H](CC(C)C)C(=O)N[C@H](C(=O)N[C@@H](CO)C(=O)NCCOCCOCC(=O)N[C@@H](CCCCNC(=O)c2ccc3c(c2)C(=O)OC32c3ccc4cc(O)ccc4c3Oc3c2ccc2cc(O)ccc32)C(N)=O)[C@@H](C)O)NC(=O)[C@H](Cc2c[nH]c3ccccc23)NC(=O)[C@H](Cc2ccc(O)cc2)NC(=O)[C@H](Cc2c[nH]cn2)NC1=O)[C@@H](C)O [Peptide 8, Ac-LTFhCHYWhCQLTS-miniPEG-K(NF)-NH2] (Ac-LTF[hCys]HYW[hCys]QLTS[AEEA]K(X1)-NH2; linker 4-8 via mXylylene)			fold improvement of MDM2 binding affinity (MDM2 [1]): 5 fold
CC(=O)N[C@@H](CC(C)C)C(=O)N[C@H](C(=O)N[C@@H](Cc1ccccc1)C(=O)N[C@H]1CCSCC(=NOCC(=O)NCCCC[C@H](NC(=O)COCCOCCNC(=O)CC[C@@H]2NC(=O)[C@@H](CCCNC(=N)N)NC(=O)[C@H](CCCNC(=N)N)NC(=O)[C@@H](CCCNC(=N)N)NC(=O)[C@H](CCCNC(=N)N)NC(=O)[C@H](Cc3ccc4ccccc4c3)NC(=O)[C@@H](Cc3ccccc3)NC2=O)C(N)=O)CSCC[C@@H](C(=O)N[C@@H](CCC(N)=O)C(=O)N[C@@H](CC(C)C)C(=O)N[C@H](C(=O)N[C@@H](CO)C(=O)NCCOCCOCC(=O)N[C@@H](CCCCN)C(N)=O)[C@@H](C)O)NC(=O)[C@H](Cc2c[nH]c3ccccc23)NC(=O)[C@H](Cc2ccc(O)cc2)NC(=O)[C@H](Cc2c[nH]cn2)NC1=O)[C@@H](C)O [Peptide 5] (I: Ac-LTF[hCys]HYW[hCys]QLTS[AEEA]K-NH2 / II: cyclo([2Nal]R[dR]R[dR]E[dF]); linker I:4-I:8-II:6 via X3)			IC50 (MDM2 [2]): 201 nM
CC(=O)N[C@@H](CC(C)C)C(=O)N[C@H](C(=O)N[C@@H](Cc1ccccc1)C(=O)N[C@H]1CCSCC(=O)CSCC[C@@H](C(=O)N[C@@H](CCC(N)=O)C(=O)N[C@@H](CC(C)C)C(=O)N[C@H](C(=O)N[C@@H](CO)C(=O)NCCOCCOCC(=O)N[C@@H](CCCCNC(=S)Nc2ccc3c(c2)C(=O)OC32c3ccc(O)cc3Oc3cc(O)ccc32)C(N)=O)[C@@H](C)O)NC(=O)[C@H](Cc2c[nH]c3ccccc23)NC(=O)[C@H](Cc2ccc(O)cc2)NC(=O)[C@H](Cc2c[nH]cn2)NC1=O)[C@@H](C)O [Peptide 2] (Ac-LTF[hCys]HYW[hCys]QLTS[AEEA]K(FITC)-NH2; linker 4-8 via CH2COCH2)			effect on viability of WT p53 cells (HCT116 p53+/+): no significant effect; effect on viability of p53 mutant cells (HCT116 p53−/−): no significant effect
CC(=O)N[C@@H](CC(C)C)C(=O)N[C@H](C(=O)N[C@@H](Cc1ccccc1)C(=O)N[C@H]1CCSCC(=NOCC(=O)NCCCC[C@H](NC(=O)COCCOCCNC(=O)CC[C@@H]2NC(=O)[C@@H](CCCNC(=N)N)NC(=O)[C@H](CCCNC(=N)N)NC(=O)[C@@H](CCCNC(=N)N)NC(=O)[C@H](CCCNC(=N)N)NC(=O)[C@H](Cc3ccc4ccccc4c3)NC(=O)[C@@H](Cc3ccccc3)NC2=O)C(N)=O)CSCC[C@@H](C(=O)N[C@@H](CCC(N)=O)C(=O)N[C@@H](CC(C)C)C(=O)N[C@H](C(=O)N[C@@H](CO)C(=O)NCCOCCOCC(=O)N[C@@H](CCCCN)C(N)=O)[C@@H](C)O)NC(=O)[C@H](Cc2c[nH]c3ccccc23)NC(=O)[C@H](Cc2ccc(O)cc2)NC(=O)[C@H](Cc2c[nH]cn2)NC1=O)[C@@H](C)O [Peptide 4] (I: Ac-LTF[hCys]HYW[hCys]QLTS[AEEA]K-NH2 / II: cyclo([2Nal]R[dR]R[dR]E[dF]); linker I:4-I:8-II:6 via X3)			IC50 (MDM2 [2]): 220 nM
NF-βA-NPECILDCHVQRVM-NH2 [18] ({NF-βAla}-NPECILDCHVQRVM-NH2; bridge 4-8; not fully specified (bridges)) [Peptide 18]		8.9% and 8.9 ± 2.9%	
CC(=O)N[C@@H](CC(C)C)C(=O)N[C@H](C(=O)N[C@@H](Cc1ccccc1)C(=O)N[C@H]1CSCc2cccc(c2)CSC[C@@H](C(=O)N[C@@H](CCC(N)=O)C(=O)N[C@@H](CC(C)C)C(=O)N[C@H](C(=O)N[C@@H](CO)C(=O)NCCOCCOCC(=O)N[C@@H](CCCCNC(=O)c2ccc3c(c2)C(=O)OC32c3ccc4cc(O)ccc4c3Oc3c2ccc2cc(O)ccc32)C(N)=O)[C@@H](C)O)NC(=O)[C@H](Cc2c[nH]c3ccccc23)NC(=O)[C@H](Cc2ccc(O)cc2)NC(=O)[C@H](Cc2c[nH]cn2)NC1=O)[C@@H](C)O [Peptide 6] (Ac-LTFCHYWCQLTS[AEEA]K(X1)-NH2; linker 4-8 via mXylylene)	~2.5		
COc1ccc(C2=N[C@@H](c3ccc(Cl)cc3)[C@@H](c3ccc(Cl)cc3)N2C(=O)N2CCNC(=O)C2)c(OC(C)C)c1 [Nutlin-3, reference compound]			effect on viability of WT p53 cells (HCT116 p53+/+): selectively killed the WT p53 cells in a dose-dependent manner

Now from value to molecule, other results behind:

fold decrease of MDM2 binding affinity (MDM2 [1]) [fold]	Molecule	Cellular Uptake (MFI^NF, %) (HeLa cells)	also measured
~2	CC(=O)N[C@@H](CC(C)C)C(=O)N[C@H](C(=O)N[C@@H](Cc1ccccc1)C(=O)N[C@H]1CSCc2cc(cc(C(=O)NCCCC[C@H](NC(=O)COCCOCCNC(=O)CC[C@@H]3NC(=O)[C@@H](CCCNC(=N)N)NC(=O)[C@H](CCCNC(=N)N)NC(=O)[C@@H](CCCNC(=N)N)NC(=O)[C@H](CCCNC(=N)N)NC(=O)[C@H](Cc4ccc5ccccc5c4)NC(=O)[C@@H](Cc4ccccc4)NC3=O)C(N)=O)c2)CSC[C@@H](C(=O)N[C@@H](CCC(N)=O)C(=O)N[C@@H](CC(C)C)C(=O)N[C@H](C(=O)N[C@@H](CO)C(=O)NCCOCCOCC(=O)N[C@@H](CCCCNC(=O)c2ccc3c(c2)C(=O)OC32c3ccc4cc(O)ccc4c3Oc3c2ccc2cc(O)ccc32)C(N)=O)[C@@H](C)O)NC(=O)[C@H](Cc2c[nH]c3ccccc23)NC(=O)[C@H](Cc2ccc(O)cc2)NC(=O)[C@H](Cc2c[nH]cn2)NC1=O)[C@@H](C)O [Peptide 7] (I: Ac-LTFCHYWCQLTS[AEEA]K(X1)-NH2 / II: cyclo([2Nal]R[dR]R[dR]E[dF]); linker I:4-I:8-II:6 via X2)		
~8	CC(=O)N[C@@H](CC(C)C)C(=O)N[C@H](C(=O)N[C@@H](Cc1ccccc1)C(=O)N[C@H]1CCSCc2cc(cc(C(=O)NCCCC[C@H](NC(=O)COCCOCCNC(=O)CC[C@@H]3NC(=O)[C@@H](CCCNC(=N)N)NC(=O)[C@H](CCCNC(=N)N)NC(=O)[C@@H](CCCNC(=N)N)NC(=O)[C@H](CCCNC(=N)N)NC(=O)[C@H](Cc4ccc5ccccc5c4)NC(=O)[C@@H](Cc4ccccc4)NC3=O)C(N)=O)c2)CSCC[C@@H](C(=O)N[C@@H](CCC(N)=O)C(=O)N[C@@H](CC(C)C)C(=O)N[C@H](C(=O)N[C@@H](CO)C(=O)NCCOCCOCC(=O)N[C@@H](CCCCNC(=O)c2ccc3c(c2)C(=O)OC32c3ccc4cc(O)ccc4c3Oc3c2ccc2cc(O)ccc32)C(N)=O)[C@@H](C)O)NC(=O)[C@H](Cc2c[nH]c3ccccc23)NC(=O)[C@H](Cc2ccc(O)cc2)NC(=O)[C@H](Cc2c[nH]cn2)NC1=O)[C@@H](C)O [Peptide 9, Ac-LTFhCHYWhCQLTS-miniPEG-K(NF)-NH2] (I: Ac-LTF[hCys]HYW[hCys]QLTS[AEEA]K(X1)-NH2 / II: cyclo(R[dR]E[dF][2Nal]R[dR]); linker I:4-I:8-II:3 via X2)		
6	CC(=O)N[C@@H](CCC(=O)O)C(=O)N[C@H](C(=O)N[C@@H](Cc1ccccc1)C(=O)N[C@H]1CSCc2cc(cc(C(=O)NCCCC[C@H](NC(=O)COCCOCCNC(=O)CC[C@@H]3NC(=O)[C@@H](CCCNC(=N)N)NC(=O)[C@H](CCCNC(=N)N)NC(=O)[C@@H](CCCNC(=N)N)NC(=O)[C@H](CCCNC(=N)N)NC(=O)[C@H](Cc4ccc5ccccc5c4)NC(=O)[C@@H](Cc4ccccc4)NC3=O)C(N)=O)c2)CSC[C@@H](C(=O)N[C@@H](CCC(N)=O)C(=O)N[C@@H](CC(C)C)C(=O)N[C@H](C(=O)N[C@@H](CO)C(=O)NCCOCCOCC(=O)N[C@@H](CCCCNC(=O)c2ccc3c(c2)C(=O)OC32c3ccc4cc(O)ccc4c3Oc3c2ccc2cc(O)ccc32)C(N)=O)[C@@H](C)O)NC(=O)[C@H](Cc2c[nH]c3ccccc23)NC(=O)[C@H](Cc2ccc(O)cc2)NC(=O)[C@H](Cc2c[nH]cn2)NC1=O)[C@@H](C)O [Peptide 11] (I: Ac-ETFCHYWCQLTS[AEEA]K(X1)-NH2 / II: cyclo([2Nal]R[dR]R[dR]E[dF]); linker I:4-I:8-II:6 via X2)		
